According to PubChem BioAssay (NCI):
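Where inhibition never reached the appropriate level, the endpoint shown equals the highest concentration tested. Otherwise, values were interpolated linearly from a five-concentration, 48-hour dose response in 96-well plates. At the GI50, growth is halved. TGI: concentration producing complete growth inhibition.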

Columns and labels:
Test in all cases: NCI anticancer screen, dose series, 48 h
[1] = tested on: SK-MEL-2 melanoma
[2] = tested on: IGROV1 ovarian
[3] = tested on: BT-549 breast
[4] = tested on: SR leukemia
[5] = tested on: T-47D breast
[6] = tested on: HT29 colon
[7] = tested on: UACC-62 melanoma
[8] = tested on: TK-10 renal
[9] = tested on: SK-OV-3 ovarian
[10] = tested on: HOP-62 NSCLC
[11] = tested on: NCI-H23 lung
[12] = tested on: SNB-75 CNS
[13] = tested on: K-562 leukemia
[14] = tested on: HCT-116 colon
[15] = tested on: MALME-3M melanoma
[16] = tested on: SF-268 CNS
[17] = tested on: NCI/ADR-RES ovarian
[18] = tested on: SW-620 colon
[19] = tested on: OVCAR-8 ovarian
[20] = tested on: NCI-H522 lung
[21] = tested on: ACHN renal
[22] = tested on: RXF 393 renal
[23] = tested on: HCC-2998 colon
[24] = tested on: SK-MEL-28 melanoma
[25] = tested on: COLO 205 colon
[26] = tested on: OVCAR-5 ovarian
[27] = tested on: KM12 colon
[28] = tested on: M14 melanoma
[29] = tested on: LOX IMVI melanoma
[30] = tested on: HL-60(TB) leukemia
[31] = tested on: NCI-H460 lung
[32] = tested on: DU-145 prostate
[33] = tested on: SNB-19 CNS
[34] = tested on: MDA-MB-231 breast
[35] = tested on: A549 NSCLC
[36] = tested on: SF-539 CNS
[37] = tested on: MOLT-4 leukemia
[38] = tested on: CAKI-1 renal
[39] = tested on: MCF7 breast
[40] = tested on: HOP-92 NSCLC
[41] = tested on: HCT-15 colon
[42] = tested on: U251 CNS
[43] = tested on: SN12C renal
[44] = tested on: UACC-257 melanoma
[45] = tested on: 786-0 renal
[46] = tested on: HS 578T breast
[47] = tested on: UO-31 renal
[48] = tested on: PC-3 prostate
[49] = tested on: CCRF-CEM leukemia
[50] = tested on: MDA-MB-435
[51] = tested on: NCI-H226 lung
[52] = tested on: A498 renal
[53] = tested on: RPMI-8226 leukemia
[54] = tested on: OVCAR-4 ovarian
[55] = tested on: SK-MEL-5 melanoma
[56] = tested on: OVCAR-3 ovarian

With `CC[C@H](C)[C@H]1NC(=O)[C@@H](N[C@](C)(O)[C@@H](N)CC(C)C)[C@@H](C)OC(=O)[C@H](Cc2ccc(OC)cc2)N(C)C(=O)[C@@H]2CCCN2C(=O)[C@H](CC(C)C)NC(=O)[C@@H](C)C(=O)[C@H](C(C)C)OC(=O)C[C@@H]1O` the GI50 [1] was 9.72 nM, the TGI [1] was 49.9 nM and the GI50 [2] was 13.3 nM. It also gave a TGI [2] of 413 nM, a GI50 [3] of 19.5 nM and a TGI [3] of 406 nM. For the same molecule, the GI50 [4] was 6.03 nM, the TGI [4] was 42.2 nM and the GI50 [5] was 8.97 nM. The TGI [5] was 301 nM, the GI50 [6] was 6.95 nM and the TGI [6] was 702 nM. It also gave a GI50 [7] of 10.9 nM, a TGI [7] of 160 nM and a GI50 [8] of 39.7 nM. It also gave a TGI [8] of 557 nM, a GI50 [9] of 19.1 nM and a TGI [9] of 1190 nM. It also gave a GI50 [10] of 14.6 nM, a TGI [10] of 601 nM and a GI50 [11] of 12.2 nM. The TGI [11] was 146 nM, the GI50 [12] was 21.5 nM and the TGI [12] was 436 nM. For the same molecule, the GI50 [13] was 15.6 nM, the TGI [13] was 1800 nM and the GI50 [14] was 6.08 nM. The TGI [14] was 50000 nM, the GI50 [15] was 11.7 nM and the TGI [15] was 133 nM. For the same molecule, the GI50 [16] was 13.2 nM, the TGI [16] was 348 nM and the GI50 [17] was 2180 nM. It also gave a TGI [17] of 46500 nM, a GI50 [18] of 16.7 nM and a TGI [18] of 6060 nM. For the same molecule, the GI50 [19] was 16.1 nM, the TGI [19] was 355 nM and the GI50 [20] was 11.4 nM. For the same molecule, the TGI [20] was 143 nM, the GI50 [21] was 42.8 nM and the TGI [21] was 2670 nM. The GI50 [22] was 19 nM, the TGI [22] was 173 nM and the GI50 [23] was 19.7 nM. For the same molecule, the TGI [23] was 361 nM, the GI50 [24] was 11.7 nM and the TGI [24] was 95.4 nM. For the same molecule, the GI50 [25] was 10.8 nM, the TGI [25] was 73 nM and the GI50 [26] was 20.4 nM. For the same molecule, the TGI [26] was 799 nM, the GI50 [27] was < 10.8 nM and the TGI [27] was 829 nM. For the same molecule, the GI50 [28] was 21.5 nM, the TGI [28] was 289 nM and the GI50 [29] was 12 nM. It also gave a TGI [29] of 209 nM, a GI50 [30] of 21.8 nM and a TGI [30] of 281 nM. For the same molecule, the GI50 [31] was 11 nM, the TGI [31] was 572 nM and the GI50 [32] was 9.03 nM. For the same molecule, the TGI [32] was 509 nM, the GI50 [33] was 13.7 nM and the TGI [33] was 461 nM. It also gave a GI50 [34] of 26.3 nM, a TGI [34] of 233 nM and a GI50 [35] of 11.5 nM. For the same molecule, the TGI [35] was 470 nM, the GI50 [36] was 16.5 nM and the TGI [36] was 185 nM. For the same molecule, the GI50 [37] was 13.3 nM, the TGI [37] was 575 nM and the GI50 [38] was 241 nM. For the same molecule, the TGI [38] was 2590 nM, the GI50 [39] was 7.35 nM and the TGI [39] was 166 nM. It also gave a GI50 [40] of 26.2 nM, a TGI [40] of 391 nM and a GI50 [41] of 217 nM. The TGI [41] was 22900 nM, the GI50 [42] was 11.9 nM and the TGI [42] was 188 nM. For the same molecule, the GI50 [43] was 11.5 nM, the TGI [43] was 316 nM and the GI50 [44] was 40.8 nM. For the same molecule, the TGI [44] was 337 nM, the GI50 [45] was 22.5 nM and the TGI [45] was 2940 nM. The GI50 [46] was 16.4 nM, the TGI [46] was 467 nM and the GI50 [47] was 343 nM. The TGI [47] was 3310 nM, the GI50 [48] was 16.4 nM and the TGI [48] was 208 nM. For the same molecule, the GI50 [49] was 11.3 nM, the TGI [49] was 232 nM and the GI50 [50] was 15.1 nM. The TGI [50] was 397 nM, the GI50 [51] was 17.5 nM and the TGI [51] was 501 nM. For the same molecule, the GI50 [52] was 37 nM, the TGI [52] was 403 nM and the GI50 [53] was 34.7 nM. It also gave a TGI [53] of 177 nM, a GI50 [54] of 18.9 nM and a TGI [54] of 365 nM. It also gave a GI50 [55] of 18 nM, a TGI [55] of 665 nM and a GI50 [56] of 17.8 nM. It also gave a TGI [56] of 232 nM.
